Source: patent US8383139B2 (Bayer CropScience AG, priority 2008, dated 2013)

How the values were obtained:
[1] = tested on: Uromyces appendiculatus; assay: Uromyces test (beans)/protective; type: in vivo; conditions: 240 h, 100 ppm active substance, protective, evaluation 10 days after inoculation, read-out: degree of effectiveness
Protocol: (§1) • Solvents: 24.5 parts by weight of acetone • 24.5 parts by weight of dimethylacetamide • Emulsifier: 1 part by weight of alkylaryl polyglycol ether (polyoxyethylene (16) tristearylphenyl ether)
(§2) To prepare a suitable active substance composition, 1 part by weight of active substance is mixed with the given amounts of solvents and emulsifier and the concentrate is diluted to the desired concentration using water.
For the testing of protective effectiveness, young plants are sprayed with the active substance composition in the application rate given. After the spray coating has been dried on, the plants are inoculated with an aqueous suspension of the spores of the bean rust pathogen Uromyces appendiculatus and then remain in an incubation chamber at approximately 20° C. and 100% relative humidity for 1 day.
The plants are then placed in a greenhouse at approximately 21° C. and a relative humidity of approximately 90%.
Evaluation is carried out 10 days after the inoculation. In this connection, 0% means a degree of effectiveness corresponding to that of the control, while a degree of effectiveness of 100% means that no infestation is observed.

[2] = tested on: Sphaerotheca fuliginea; assay: Sphaerotheca test (cucumber)/protective; type: in vivo; conditions: Podosphaera fuliginea, 168 h, 500 ppm active substance, protective, evaluation 7 days after inoculation, read-out: degree of effectiveness
Protocol: • Solvents: 49 parts by weight of N,N-dimethylformamide • Emulsifier: 1 part by weight of alkylaryl polyglycol ether (polyoxyethylene (16) tristearylphenyl ether) To prepare a suitable active substance composition, 1 part by weight of active substance is mixed with the given amounts of solvents and emulsifier and the concentrate is diluted to the desired concentration using water. For the testing of protective effectiveness, young cucumber plants are sprayed with the active substance composition in the application rate given. One day after the treatment, the plants are inoculated with a suspension of spores of Sphaerotheca fuliginea. Subsequently, the plants are placed in a greenhouse at 70% relative humidity and at a temperature of 23° C. Evaluation is carried out 7 days after the inoculation. In this connection, 0% means a degree of effectiveness corresponding to that of the control, while a degree of effectiveness of 100% means that no infestation is observed.

[3] = log P by HPLC on reversed-phase columns (C 18), EEC Directive 79/831 Annex V.A8; type: physicochemical; conditions: reversed-phase C18 HPLC column, pH 2.3, [a] HPLC, acid region pH 2.3, 0.1% aqueous phosphoric acid and acetonitrile; read-out: log p
[4] = tested on: Puccinia triticina; assay: Puccinia triticina test (wheat)/protective; type: in vivo; conditions: 192 h, 500 ppm active substance, protective, evaluation 8 days after inoculation, read-out: degree of effectiveness
Protocol: • Solvent: 50 parts by weight of N,N-dimethylacetamide • Emulsifier: 1 part by weight of alkylaryl polyglycol ether (polyoxyethylene (16) tristearylphenyl ether) To prepare a suitable active substance composition, 1 part by weight of active substance is mixed with the given amounts of solvent and emulsifier and the concentrate is diluted to the desired concentration using water. For the testing of protective effectiveness, young plants are sprayed with the active substance composition in the application rate given. After the spray coating has been dried on, the plants are sprayed with spores with a suspension of spores of Puccinia triticina. The plants remain in an incubation chamber at 20° C. and 100% relative humidity for 48 hours. The plants are placed in a greenhouse at a temperature of approximately 20° C. and a relative humidity of approximately 80%. Evaluation is carried out 8 days after the inoculation. In this connection, 0% means a degree of effectiveness corresponding to that of the control, while a degree of effectiveness of 100% means that no infestation is observed.

[5] = tested on: Septoria tritici; assay: Septoria tritici test (wheat)/protective; type: in vivo; conditions: Zymoseptoria tritici, 504 h, 500 ppm active substance, protective, evaluation 21 days after inoculation, read-out: degree of effectiveness
Protocol: • Solvent: 50 parts by weight of N,N-dimethylacetamide • Emulsifier: 1 part by weight of alkylaryl polyglycol ether (polyoxyethylene (16) tristearylphenyl ether) To prepare a suitable active substance composition, 1 part by weight of active substance is mixed with the given amounts of solvent and emulsifier and the concentrate is diluted to the desired concentration using water. For the testing of protective effectiveness, young plants are sprayed with the active substance composition at the application rate given. After the spray coating has dried on, the plants are sprayed with a suspension of spores of Septoria tritici. The plants remain in an incubation chamber at 20° C. and 100% relative humidity for 48 hours. The plants are afterwards placed under a transparent hood at 15° C. and 100% relative humidity for a further 60 hours. The plants are placed in a greenhouse at a temperature of approximately 15° C. and a relative humidity of 80%. Evaluation is carried out 21 days after the inoculation. In this connection, 0% means a degree of effectiveness corresponding to that of the control, while a degree of effectiveness of 100% means that no infestation is observed.

[6] = tested on: Alternaria solani; assay: Alternaria test (tomato)/protective; type: in vivo; conditions: 72 h, 100 ppm active substance, protective, evaluation 3 days after inoculation, read-out: degree of effectiveness
Protocol: as §1, §2
For the testing of protective effectiveness, young plants are sprayed with the active substance composition in the application rate given. After the spray coating has been dried on, the plants are inoculated with an aqueous suspension of spores of Alternaria solani. The plants are then placed in an incubation chamber at approximately 20° C. and 100% relative humidity.
Evaluation is carried out 3 days after the inoculation. In this connection, 0% means a degree of effectiveness corresponding to that of the control, while a degree of effectiveness of 100% means that no infestation is observed.

Structure (SMILES) | chromatographic logP [3] | pest or weed control at 100 ppm [1] | pest or weed control at 500 ppm [2] | pest or weed control at 500 ppm [4] | pest or weed control at 500 ppm [5] | pest or weed control at 100 ppm [6]
Cc1cc(Oc2nc(Cc3ccc(Cl)c(Cl)c3)ns2)c(C)cc1N=CN1CCCCC1 [Example 48, 4-{[3-(3,4-dichlorobenzyl)-1,2,4-thiadiazol-5-yl]oxy}-2,5-dimethyl-N-(piperidin-1-ylmethylidene)aniline] | – | ≥ 70% | ≥ 70% | – | – | –
CCN(C)C=Nc1cc(C)c(Oc2nc(Cc3ccc4c(c3)OCO4)ns2)cc1C [Example 46, N′-(4-{[3-(1,3-benzodioxol-5-ylmethyl)-1,2,4-thiadiazol-5-yl]oxy}-2,5-dimethylphenyl)-N-ethyl-N-methylimidoformamide] | 1.65 | – | ≥ 70% | ≥ 70% | ≥ 70% | ≥ 70%
Cc1cc(Oc2nc(C(C)(C)c3ccc(Cl)cc3)ns2)c(Cl)cc1N=CN(C)C(C)C [Example 30, N′-[5-chloro-4-({3-[2-(4-chlorophenyl)propan-2-yl]-1,2,4-thiadiazol-5-yl}oxy)-2-methylphenyl]-N-methyl-N-(propan-2-yl)imidoformamide] | 2.86 | – | ≥ 70% | ≥ 70% | – | –
COc1ccccc1Cc1nsc(Oc2cc(C)c(N=CN3CCCCC3)cc2C)n1 [Example 50, 4-{[3-(2-methoxybenzyl)-1,2,4-thiadiazol-5-yl]oxy}-2,5-dimethyl-N-(piperidin-1-ylmethylidene)aniline] | 2.05 | ≥ 70% | ≥ 70% | – | ≥ 70% | –
Cc1cc(Oc2nc(C3(c4ccc(Cl)cc4)CC3)ns2)c(C)cc1N=CN(C)C(C)C [Example 39, N′-[4-({3-[1-(4-chlorophenyl)cyclopropyl]-1,2,4-thiadiazol-5-yl}oxy)-2,5-dimethylphenyl]-N-methyl-N-(propan-2-yl)imidoformamide] | 2.57 | – | ≥ 70% | ≥ 70% | ≥ 70% | ≥ 70%
CCN(C)C=Nc1cc(C)c(Oc2nc(Cc3cc(Br)ccc3C)ns2)cc1C [Example 14, N′-(4-{[3-(5-bromo-2-methylbenzyl)-1,2,4-thiadiazol-5-yl]oxy}-2,5-dimethylphenyl)-N-ethyl-N-methylimidoformamide] | 2.28 | ≥ 70% | ≥ 70% | ≥ 70% | ≥ 70% | –
Cc1cc(Oc2nc(Cc3cccc(Cl)c3)ns2)c(C)cc1N=CN1CCCCC1 [Example 34, 4-{[3-(3-chlorobenzyl)-1,2,4-thiadiazol-5-yl]oxy}-2,5-dimethyl-N-(piperidin-1-ylmethylidene)aniline] | 2.13 | ≥ 70% | ≥ 70% | ≥ 70% | ≥ 70% | –
CCN(C)C=Nc1cc(C)c(Oc2nc(Cc3cccc(OC)c3)ns2)cc1C [Example 16, N-ethyl-N′-(4-{[3-(3-methoxybenzyl)-1,2,4-thiadiazol-5-yl]oxy}-2,5-dimethylphenyl)-N-methylimidoformamide] | 1.7 | – | ≥ 70% | ≥ 70% | ≥ 70% | –
Cc1cc(Oc2nc(Cc3ccc(Cl)cc3Cl)ns2)c(C)cc1N=CN(C)C(C)C [Example 12, N′-(4-{[3-(2,4-dichlorobenzyl)-1,2,4-thiadiazol-5-yl]oxy}-2,5-dimethylphenyl)-N-methyl-N-(propan-2-yl)imidoformamide] | 2.24 | ≥ 70% | ≥ 70% | ≥ 70% | ≥ 70% | –
Cc1cc(Oc2nc(Cc3ccc(Br)cc3)ns2)c(C)cc1N=CN1CCCCC1 [Example 33, 4-{[3-(4-bromobenzyl)-1,2,4-thiadiazol-5-yl]oxy}-2,5-dimethyl-N-(piperidin-1-ylmethylidene)aniline] | 2.17 | – | ≥ 70% | ≥ 70% | ≥ 70% | –

Continued, in another order:

chromatographic logP [3] | Structure (SMILES) | pest or weed control at 100 ppm [1] | pest or weed control at 500 ppm [2] | pest or weed control at 500 ppm [4] | pest or weed control at 500 ppm [5] | pest or weed control at 100 ppm [6]
2.71 | Cc1cc(Oc2nc(C3(c4ccc(Cl)cc4)CC3)ns2)c(Cl)cc1N=CN(C)C(C)C [Example 41, N′-[5-chloro-4-({3-[1-(4-chlorophenyl)cyclopropyl]-1,2,4-thiadiazol-5-yl}oxy)-2-methylphenyl]-N-methyl-N-(propan-2-yl)imidoformamide] | – | ≥ 70% | ≥ 70% | ≥ 70% | –
2.53 | Cc1cc(Oc2nc(Cc3ccc(Cl)cc3)ns2)c(Cl)cc1N=CN1CCCCC1 [Example 4, 5-chloro-4-{[3-(4-chlorobenzyl)-1,2,4-thiadiazol-5-yl]oxy}-2-methyl-N-(piperidin-1-ylmethylidene)aniline] | ≥ 70% | ≥ 70% | ≥ 70% | ≥ 70% | –
2.41 | Cc1cc(Oc2nc(C(C)c3ccc(Cl)cc3)ns2)c(C)cc1N=CN1CCCCC1 (centres unmarked) [Example 18, 4-({3-[1-(4-chlorophenyl)ethyl]-1,2,4-thiadiazol-5-yl}oxy)-2,5-dimethyl-N-(piperidin-1-ylmethylidene)aniline] | ≥ 70% | ≥ 70% | ≥ 70% | – | –
2.76 | Cc1cc(Oc2nc(C3(c4ccc(Cl)cc4)CC3)ns2)c(Cl)cc1N=CN1CCCCC1 [Example 44, 5-chloro-4-({3-[1-(4-chlorophenyl)cyclopropyl]-1,2,4-thiadiazol-5-yl}oxy)-2-methyl-N-(piperidin-1-ylmethylidene)aniline] | – | ≥ 70% | ≥ 70% | ≥ 70% | ≥ 70%
2.6 | Cc1cc(Oc2nc(C3(c4ccc(Cl)cc4)CC3)ns2)c(C)cc1N=CN1CCCCC1 [Example 38, 4-({3-[1-(4-chlorophenyl)cyclopropyl]-1,2,4-thiadiazol-5-yl}oxy)-2,5-dimethyl-N-(piperidin-1-ylmethylidene)aniline] | – | ≥ 70% | ≥ 70% | ≥ 70% | ≥ 70%
